According to the OligoGym collection:
Several values for one entry are separate records, joined by “and”; a condition that tells them apart may be missing. Equal entries are not always repeated. After the bases stand the sugars from the 5' end (letter, count) and the backbone: PS all phosphorothioate, else s phosphorothioate and o phosphodiester by linkage. Methylation of C is not given here. e = 2'-O-(2-methoxyethyl) (MOE); k = constrained ethyl (cEt); d = 2'-deoxy (DNA)

Target: IRF4
Details: ASO

Sequence | target mRNA inhibition (SK-MEL-28, 4 µM) [%] | target mRNA inhibition (MM.1R, 1 µM) | also measured
CGAAGAATTTTAGCAT (sugars k3 d10 k3, PS) | 58 | – | –
CGAATAGGACCCCTAT (sugars k3 d10 k3, PS) | 9 | – | –
CGACAACTTTCCTGAA (sugars k3 d10 k3, PS) | 21 | – | –
CGACAGTCCGGTTAGC (sugars k3 d10 k3, PS) | 11 | – | –
CGCAAGTCTACAGCCC (sugars k3 d10 k3, PS) | 59 | 6% | target mRNA inhibition (MM.1R, 0.0625 µM): 0%; target mRNA inhibition (MM.1R, 0.074 µM): -7%; target mRNA inhibition (MM.1R, 0.222 µM): -9%; target mRNA inhibition (MM.1R, 0.25 µM): 1%; target mRNA inhibition (MM.1R, 0.666 µM): -9%; target mRNA inhibition (MM.1R, 2 µM): 8%; target mRNA inhibition (MM.1R, 4 µM): 12%
CGCATTGCTAGATTCT (sugars k3 d10 k3, PS) | – | 37% and 27% | target mRNA inhibition (MM.1R, 0.0625 µM): -9%; target mRNA inhibition (MM.1R, 0.25 µM): 4%; target mRNA inhibition (MM.1R, 4 µM): 55%
CGCCACATCAGCAGAC (sugars k3 d10 k3, PS) | 12 | – | –
CGCCACCTGATGCCTC (sugars k3 d10 k3, PS) | 30 | – | –
CGCCAGCGGGTGAGCA (sugars k3 d10 k3, PS) | – | 19% | –
CGCCCAGGACCCGGCT (sugars k3 d10 k3, PS) | – | -1% | –
CGCCCATGAGTTGAAA (sugars k3 d10 k3, PS) | – | 13% | –
CGCCCTGGACTCGGAG (sugars k3 d10 k3, PS) | 36 | – | –
CGCGGTTGTAGTCCTG (sugars k3 d10 k3, PS) | 44 | – | –
CGCTACAGCTTCTGCA (sugars k3 d10 k3, PS) | 20 | – | –
CGCTCAAAGACCAGCT (sugars k3 d10 k3, PS) | 56 | – | –
CGCTCAACCAGTTCCT (sugars k3 d10 k3, PS) | 28 | – | –
CGCTCAGGACTCAGGG (sugars k3 d10 k3, PS) | 55 | – | –
CGCTTGTGGATATACA (sugars k3 d10 k3, PS) | – | 0% | –
CGGAACTTTCCTTTAA (sugars k3 d10 k3, PS) | 37 | – | –
CGGAAGAAGGCACCTT (sugars k3 d10 k3, PS) | -12 | – | –
CGGACGCACGGAGAGG (sugars k3 d10 k3, PS) | 28 | – | –
CGGTTAGCTCATCCCG (sugars k3 d10 k3, PS) | – | 5% | –
CGTAGTCACGCAATGG (sugars k3 d10 k3, PS) | – | 15% | –
CGTGGAAACGAGAACG (sugars k3 d10 k3, PS) | 29 | – | –

Sequence | target mRNA inhibition (SK-MEL-28, 4 µM) [%] | target mRNA inhibition (MM.1R, 1 µM) | also measured
CGTGTGCTTGCCAAGC (sugars k2 d9 e3 k2, PS) | – | 60% and 66% | –
CGTGTGCTTGCCAAGC (sugars kddddddddddkekek, PS) | – | 30% and 32% | –
CGTGTGCTTGCCAAGC (sugars kkdddddddddekeke, PS) | – | 47% and 36% | –
CTAAAGTCCCATCGAA (sugars k3 d10 k3, PS) | – | -2% | –
CTAAATTCTAGTTTGC (sugars k3 d10 k3, PS) | 21 | – | –
CTAAGGAGACAGTAAC (sugars k3 d10 k3, PS) | 29 | – | –
CTAATCCACAATCAGC (sugars k3 d10 k3, PS) | 45 | – | –
CTAATCTACAACAAAT (sugars k3 d10 k3, PS) | 23 | – | –
CTACAAAATGCCTCCA (sugars k3 d10 k3, PS) | 42 | – | –
CTACAAAGAGCACTGC (sugars k3 d10 k3, PS) | 53 | – | –
CTACACCTACACAGGC (sugars k3 d10 k3, PS) | 16 | – | –
CTACAGATCTCAGCAA (sugars k3 d10 k3, PS) | 18 | – | –
CTACATCTACTCCAGA (sugars k3 d10 k3, PS) | 22 | – | –
CTACATTTCTTATGCA (sugars k3 d10 k3, PS) | 39 | – | –
CTAGAGGTGCCTTCTT (sugars k3 d10 k3, PS) | 26 | – | –
CTAGATAGCATTCTTA (sugars k3 d10 k3, PS) | 39 | – | –
CTATAGTGTTCCAGGA (sugars kdddddddddkekeke, PS) | – | 12% | –
CTATAGTGTTCCAGGA (sugars kkdddddddddekeke, PS) | – | 48% | –
CTATAGTGTTCCAGGA (sugars kkdddddddddkdkdk, PS) | – | 49% | target mRNA inhibition (MM.1R, 0.074 µM): 19%; target mRNA inhibition (MM.1R, 0.222 µM): 23%; target mRNA inhibition (MM.1R, 0.666 µM): 42%; target mRNA inhibition (MM.1R, 2 µM): 68%
CTATGCTAGAGAACAT (sugars k3 d10 k3, PS) | 23 | – | –
CTCAGCAAGTGTCTTC (sugars k3 d10 k3, PS) | 45 | – | –
CTCATAGGTGTACACG (sugars k3 d10 k3, PS) | 59 | – | –
CTCGAGGCCAACGACT (sugars k3 d10 k3, PS) | 1 | – | –
CTCTACTGGAGTCAAG (sugars k3 d10 k3, PS) | 25 | – | –
